Experiments:
Experiment in all cases: relative viability (nuclei count vs DMSO), 5 days (fraction); higher = more cells survive
Kobe2602 + Palbociclib = compound: C1=CC(=CC=C1NC(=S)NNC2=C(C=C(C=C2[N+](=O)[O-])C(F)(F)F)[N+](=O)[O-])F [Kobe2602] + CC(=O)c1c(C)c2cnc(Nc3ccc(N4CCNCC4)cn3)nc2n(C2CCCC2)c1=O [Palbociclib] (partner 0.5 µM)
Method in brief: (§1)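 One day after seeding in 1536-well plates, lung cancer cell lines were dosed by pin tool. Dosing was either single-drug or a fixed anchor-drug dose plus five library-drug doses (not always all listed) in √10 steps. After 5 days, nuclei were stained in one fix-and-stain step and counted on 4× images, and relative viability is the nuclei count of treated wells over that of vehicle wells, given as the median of duplicate plates.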

[1] = compound: COc1cc2nccc(Oc3ccc(NC(=O)C4(C(=O)Nc5ccc(F)cc5)CC4)cc3)c2cc1OC [Cabozantinib] + C[C@]1(O)C[C@@H](c2nc(-c3ccc4ccc(-c5ccccc5)nc4c3)c3c(N)nccn32)C1 [Linsitinib] (partner 1 µM)
Method in brief: as §1

Kobe2602 + Bortezomib = compound: C1=CC(=CC=C1NC(=S)NNC2=C(C=C(C=C2[N+](=O)[O-])C(F)(F)F)[N+](=O)[O-])F [Kobe2602] + CC(C)C[C@H](NC(=O)[C@H](Cc1ccccc1)NC(=O)c1cnccn1)B(O)O [Bortezomib] (partner 0.002 µM)
Method in brief: as §1

Zosuquidar + OSI-027 = compound: O[C@@H](COc1cccc2ncccc12)CN1CCN([C@@H]2c3ccccc3[C@@H]3[C@H](c4ccccc42)C3(F)F)CC1 [Zosuquidar] + COc1cccc2cc(-c3nc([C@H]4CC[C@H](C(=O)O)CC4)n4ncnc(N)c34)[nH]c12 [OSI-027] (partner 0.5 µM)
Method in brief: as §1

Cell Line	relative viability (Kobe2602 + Palbociclib; first compound 0.2 µM)	relative viability (Kobe2602 + Palbociclib; first compound 0.6325 µM)	relative viability (Kobe2602 + Palbociclib; first compound 2 µM)	relative viability (Kobe2602 + Palbociclib; first compound 6.325 µM)	relative viability (Kobe2602 + Palbociclib; first compound 20 µM)	relative viability ([1]; first compound 0.02 µM)	relative viability ([1]; first compound 0.06325 µM)	relative viability ([1]; first compound 0.2 µM)	relative viability ([1]; first compound 0.6325 µM)	relative viability ([1]; first compound 2 µM)	relative viability (Kobe2602 + Bortezomib; first compound 0.2 µM)	relative viability (Kobe2602 + Bortezomib; first compound 0.6325 µM)	relative viability (Kobe2602 + Bortezomib; first compound 2 µM)	relative viability (Kobe2602 + Bortezomib; first compound 6.325 µM)	relative viability (Kobe2602 + Bortezomib; first compound 20 µM)	relative viability (Zosuquidar + OSI-027; first compound 0.01 µM)	relative viability (Zosuquidar + OSI-027; first compound 0.03162 µM)	relative viability (Zosuquidar + OSI-027; first compound 0.1 µM)	relative viability (Zosuquidar + OSI-027; first compound 0.3162 µM)	relative viability (Zosuquidar + OSI-027; first compound 1 µM)
NCI-H1437	0.308	0.306	0.299	0.337	0.257	1.12	1.26	1.06	1.13	0.982	0.595	0.48	0.562	0.392	0.451	0.865	0.889	0.765	1.12	0.871
NCI-H1651	0.528	0.52	0.521	0.524	0.518	1.06	0.969	1.06	0.958	0.733	0.924	0.961	0.956	0.94	1.01	0.78	0.694	0.633	0.657	0.725
NCI-H1666	0.644	0.628	0.596	0.647	0.619	1.05	0.819	0.847	0.811	0.925	0.919	0.728		0.737	0.867	0.844	0.919	0.8	0.957	0.957
NCI-H1734	0.364	0.412	0.325	0.607	0.334	0.959	0.916	0.929	0.831	0.517	1.06	0.963	0.872	1.01	0.952	0.587	0.612	0.541	0.697	0.662
NCI-H1755	0.457	0.467	0.484	0.459	0.465	0.982	0.967	0.965	0.841	0.834	1.04	0.971	0.895	0.96	1	0.736	0.67	0.516	0.821	0.722
NCI-H1792	0.634	0.707	0.653	0.671	0.682	0.669	0.588	0.511	0.483	0.496	0.965	0.901	1.09	0.985	0.986	0.786	0.601		0.837	0.753
NCI-H1915	0.512	0.558	0.578	0.536	0.57	1.1	1.12	1.09	1.01	1.12	1.01	0.998	0.958	0.99	0.931	0.642	0.624	0.529	0.637	0.599
NCI-H1975	0.668	0.599	0.613	0.544	0.631	1	1.09	0.895	0.965	0.898	0.363	0.392	0.297	0.365	0.358	0.789	0.684	0.679	0.885	0.832
NCI-H1993	0.679	0.543	0.48	0.589	0.525	0.776	0.722	0.712	0.69	0.718	0.978	1.09	0.897	0.985	1.02	0.632	0.677	0.488	0.497	0.525
NCI-H2009	0.241	0.258	0.294	0.24	0.254	1.23	1.17	1.18	1.19	1.23	0.961	1.11	0.97	1.04	0.949	0.64	0.684	0.529	0.782	0.645
NCI-H2023	0.33	0.41	0.405	0.32	0.255	0.637	0.76	0.465	0.459	0.316	0.954	0.995	0.873	0.945	0.927	0.354	0.401	0.325	0.665	0.427
NCI-H2085	0.506	0.481	0.508	0.489	0.418	0.93	0.868	0.918	0.847	0.875	1.07	1.08	0.99	1.07	1.11	0.707	0.779	0.468	0.84	0.746
NCI-H2087	0.202	0.258	0.21	0.297	0.237	1.03	1	1.06	1.02	1	0.778	0.626	0.644	0.851	0.83	0.607		0.432	0.694	0.587
NCI-H2126	0.379	0.357	0.343	0.346	0.35	0.727	0.755	0.735	0.733	0.701	1.14	1.09	1.11	1.19	1.11	0.736	0.982		0.684	0.787
NCI-H2228	0.843	0.625	0.687	0.691	0.838	0.939	1.32	0.611	0.716	0.542	1.11	0.849	0.953	0.947	1.12	0.614	0.635	0.604	0.745	0.428
NCI-H2347	0.422	0.435	0.403	0.438	0.421	0.967	0.961	0.992	0.846	0.81	1.16	1.01	0.879	0.827	1.44	0.434	0.398	0.238	0.481	0.475

Reference: the supplement of paper PMC10307832
